Results taken from PubChem BioAssay (NCI).
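Five concentrations, 48 hours, 96-well plates. TGI marks complete inhibition of growth.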

How the values were obtained:
Assay in all cases: growth of human tumour cells (NCI), 48 h
MCF7 breast = test system: MCF7 breast
SK-MEL-5 melanoma = test system: SK-MEL-5 melanoma
NCI-H226 lung = test system: NCI-H226 lung
SN12C renal = test system: SN12C renal
ACHN renal = test system: ACHN renal
SF-295 CNS = test system: SF-295 CNS
RPMI-8226 leukemia = test system: RPMI-8226 leukemia
UACC-62 melanoma = test system: UACC-62 melanoma
HCT-15 colon = test system: HCT-15 colon
BT-549 breast = test system: BT-549 breast
A549 NSCLC = test system: A549 NSCLC
MDA-MB-231 breast = test system: MDA-MB-231 breast
SK-MEL-2 melanoma = test system: SK-MEL-2 melanoma
HOP-62 NSCLC = test system: HOP-62 NSCLC
CAKI-1 renal = test system: CAKI-1 renal
SNB-75 CNS = test system: SNB-75 CNS
DU-145 prostate = test system: DU-145 prostate
M14 melanoma = test system: M14 melanoma
A498 renal = test system: A498 renal
SW-620 colon = test system: SW-620 colon
NCI/ADR-RES ovarian = test system: NCI/ADR-RES ovarian
HS 578T breast = test system: HS 578T breast
T-47D breast = test system: T-47D breast
SK-MEL-28 melanoma = test system: SK-MEL-28 melanoma
HCT-116 colon = test system: HCT-116 colon
IGROV1 ovarian = test system: IGROV1 ovarian
UO-31 renal = test system: UO-31 renal
MOLT-4 leukemia = test system: MOLT-4 leukemia
OVCAR-8 ovarian = test system: OVCAR-8 ovarian
SNB-19 CNS = test system: SNB-19 CNS
PC-3 prostate = test system: PC-3 prostate
HL-60(TB) leukemia = test system: HL-60(TB) leukemia
EKVX NSCLC = test system: EKVX NSCLC
SK-OV-3 ovarian = test system: SK-OV-3 ovarian
SF-539 CNS = test system: SF-539 CNS
HCC-2998 colon = test system: HCC-2998 colon
MDA-N = test system: MDA-N
K-562 leukemia = test system: K-562 leukemia
UACC-257 melanoma = test system: UACC-257 melanoma
RXF 393 renal = test system: RXF 393 renal
NCI-H23 lung = test system: NCI-H23 lung
OVCAR-4 ovarian = test system: OVCAR-4 ovarian
OVCAR-3 ovarian = test system: OVCAR-3 ovarian
KM12 colon = test system: KM12 colon
COLO 205 colon = test system: COLO 205 colon
MALME-3M melanoma = test system: MALME-3M melanoma
NCI-H460 lung = test system: NCI-H460 lung
786-0 renal = test system: 786-0 renal
U251 CNS = test system: U251 CNS
HOP-92 NSCLC = test system: HOP-92 NSCLC
SF-268 CNS = test system: SF-268 CNS
CCRF-CEM leukemia = test system: CCRF-CEM leukemia
TK-10 renal = test system: TK-10 renal
LOX IMVI melanoma = test system: LOX IMVI melanoma
MDA-MB-435 = test system: MDA-MB-435
OVCAR-5 ovarian = test system: OVCAR-5 ovarian
NCI-H522 lung = test system: NCI-H522 lung
HT29 colon = test system: HT29 colon

How did the TGI (MCF7 breast) turn out when `OC(c1ccc(F)cc1)(c1ccc(F)cc1)C1CC1` was run?
The TGI was over 100 µM.

And the TGI (SK-MEL-5 melanoma)?
The TGI was 30.2 µM.

What about the TGI (NCI-H226 lung) of the same compound?
Its TGI is 88.1 µM.

And the TGI (SN12C renal)?
The TGI was 53.6 µM.

And the TGI (ACHN renal)?
The TGI was over 100 µM.

And the TGI (SF-295 CNS)?
Its TGI is over 100 µM.

What about the TGI (RPMI-8226 leukemia) of the same compound?
Its TGI is 59.2 µM.

And the TGI (UACC-62 melanoma)?
Its TGI is over 100 µM.

What about the TGI (HCT-15 colon) of the same compound?
Its TGI is 68.2 µM.

What about the TGI (BT-549 breast) of the same compound?
The TGI was 37.9 µM.

What about the TGI (A549 NSCLC) of the same compound?
Its TGI is 94.2 µM.

What about the TGI (MDA-MB-231 breast) of the same compound?
Its TGI is over 100 µM.

And the TGI (SK-MEL-2 melanoma)?
Its TGI is 32.5 µM.

And the TGI (HOP-62 NSCLC)?
The TGI was over 100 µM.

What about the TGI (CAKI-1 renal) of the same compound?
The TGI was 98.7 µM.

What about the TGI (SNB-75 CNS) of the same compound?
Its TGI is over 100 µM.

What about the TGI (DU-145 prostate) of the same compound?
Its TGI is over 100 µM.

What about the TGI (M14 melanoma) of the same compound?
The TGI was 69.2 µM.

And the TGI (A498 renal)?
Its TGI is 77.8 µM.

What about the TGI (SW-620 colon) of the same compound?
Its TGI is over 100 µM.

What about the TGI (NCI/ADR-RES ovarian) of the same compound?
The TGI was 58 µM.

What about the TGI (HS 578T breast) of the same compound?
The TGI was 82.6 µM.

And the TGI (T-47D breast)?
The TGI was over 100 µM.

What about the TGI (SK-MEL-28 melanoma) of the same compound?
The TGI was over 100 µM.

What about the TGI (HCT-116 colon) of the same compound?
The TGI was over 100 µM.

And the TGI (IGROV1 ovarian)?
The TGI was over 100 µM.

And the TGI (UO-31 renal)?
The TGI was 59.5 µM.

And the TGI (MOLT-4 leukemia)?
The TGI was 49.2 µM.

What about the TGI (OVCAR-8 ovarian) of the same compound?
The TGI was over 100 µM.

And the TGI (SNB-19 CNS)?
Its TGI is over 100 µM.

What about the TGI (PC-3 prostate) of the same compound?
The TGI was 53.7 µM.

And the TGI (HL-60(TB) leukemia)?
The TGI was 47.3 µM.

And the TGI (EKVX NSCLC)?
Its TGI is 96.2 µM.

And the TGI (SK-OV-3 ovarian)?
The TGI was over 100 µM.

And the TGI (SF-539 CNS)?
The TGI was over 100 µM.

And the TGI (HCC-2998 colon)?
Its TGI is 45.7 µM.

And the TGI (MDA-N)?
The TGI was 44.1 µM.

And the TGI (K-562 leukemia)?
The TGI was over 100 µM.

What about the TGI (UACC-257 melanoma) of the same compound?
Its TGI is 73 µM.

What about the TGI (RXF 393 renal) of the same compound?
The TGI was 67.7 µM.

And the TGI (NCI-H23 lung)?
The TGI was 35.9 µM.

What about the TGI (OVCAR-4 ovarian) of the same compound?
Its TGI is 79.2 µM.

What about the TGI (OVCAR-3 ovarian) of the same compound?
Its TGI is over 100 µM.

And the TGI (KM12 colon)?
The TGI was over 100 µM.

What about the TGI (COLO 205 colon) of the same compound?
Its TGI is 29.7 µM.

What about the TGI (MALME-3M melanoma) of the same compound?
The TGI was 65.2 µM.

And the TGI (NCI-H460 lung)?
The TGI was over 100 µM.

And the TGI (786-0 renal)?
Its TGI is over 100 µM.

And the TGI (U251 CNS)?
The TGI was 59.6 µM.

And the TGI (HOP-92 NSCLC)?
Its TGI is 97 µM.

And the TGI (SF-268 CNS)?
The TGI was over 100 µM.

And the TGI (CCRF-CEM leukemia)?
Its TGI is 95.8 µM.

What about the TGI (TK-10 renal) of the same compound?
Its TGI is over 100 µM.

What about the TGI (LOX IMVI melanoma) of the same compound?
Its TGI is 48.2 µM.

And the TGI (MDA-MB-435)?
Its TGI is 74.2 µM.

And the TGI (OVCAR-5 ovarian)?
Its TGI is over 100 µM.

What about the TGI (NCI-H522 lung) of the same compound?
Its TGI is 52.9 µM.

And the TGI (HT29 colon)?
Its TGI is 65.9 µM.
